Molecular target: T1, DHS (deoxyhypusine synthase) from Ixodes ricinus (Ixodes ricinus, UniProt A0A0K8RJK0)
T1 construct: cDNA from salivary gland RNA; pET-28a(+) N-terminal His tag/thrombin/T7 tag, removal not mentioned; E. coli BL21(DE3), Ni-NTA native purification
T1 sequence (A0A0K8RJK0 1-365): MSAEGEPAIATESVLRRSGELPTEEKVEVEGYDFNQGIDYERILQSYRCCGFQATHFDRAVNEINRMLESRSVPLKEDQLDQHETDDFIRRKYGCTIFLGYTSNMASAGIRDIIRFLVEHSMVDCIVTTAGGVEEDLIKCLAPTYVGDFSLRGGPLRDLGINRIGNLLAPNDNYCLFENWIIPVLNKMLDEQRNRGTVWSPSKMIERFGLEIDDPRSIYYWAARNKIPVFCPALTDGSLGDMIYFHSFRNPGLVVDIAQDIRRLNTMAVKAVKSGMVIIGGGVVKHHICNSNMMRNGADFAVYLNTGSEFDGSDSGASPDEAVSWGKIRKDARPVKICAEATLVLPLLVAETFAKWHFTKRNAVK
Experiment: DHS activity assay, GC/MS detection of deoxyhypusine
Format: biochemical
Details: 2.1 mM spermidine, co-substrate human eIF5A precursor 40 μg, 3 mM NAD, glycine NaOH buffer, 37 °C, 1 h; specific activity only

NCCCCNCCCN [spermidine]
DHS activity assay, GC/MS detection of deoxyhypusine: No DHS activity was detected in control experiments without either the precursor protein
